Active and inactive are the calls of the source. The calls are words filed in the database; no cut-off is given here. Where a SMILES comes first, the peptide text is derived from it. [ ]: non-standard residue; d: D form. The star is where a group is joined. Octanoyl = CCCCCCCC(=O)*; Dap = NC[C@H](N)C(=O)O
Legend:
[1] = molecular target: T1, Membrane-bound ghrelin O-acyltransferase MBOAT4 (Mus musculus) (UniProt P0C7A3); assay: Inhibition of His10-tagged mouse GOAT expressed in baculovirus infected Sf9 cells assessed as reduction in specific acyl transfer from tritiated-octanoyl CoA to recombinant His-tagged pro-ghrelin
T1 sequence (whole entry): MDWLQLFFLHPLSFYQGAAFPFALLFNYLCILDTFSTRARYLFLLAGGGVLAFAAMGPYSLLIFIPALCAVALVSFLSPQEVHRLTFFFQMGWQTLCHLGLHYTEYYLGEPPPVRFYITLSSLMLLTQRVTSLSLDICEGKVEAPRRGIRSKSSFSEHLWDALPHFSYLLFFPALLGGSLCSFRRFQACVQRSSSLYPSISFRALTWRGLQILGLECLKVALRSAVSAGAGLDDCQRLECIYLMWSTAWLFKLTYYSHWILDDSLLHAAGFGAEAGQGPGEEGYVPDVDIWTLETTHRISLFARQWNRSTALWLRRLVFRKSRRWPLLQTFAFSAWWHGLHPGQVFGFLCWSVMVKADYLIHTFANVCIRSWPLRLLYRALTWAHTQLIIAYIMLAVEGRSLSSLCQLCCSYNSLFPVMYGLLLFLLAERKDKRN

[2] = molecular target: T1, Membrane-bound ghrelin O-acyltransferase MBOAT4 (Mus musculus); assay: Inhibition of His10-tagged mouse GOAT expressed in baculovirus infected Sf9 cells assessed as reduction in specific acyl transfer from tritiated-octanoyl CoA to recombinant His-tagged pro-ghrelin at 100 uM
[3] = molecular target: T1, Membrane-bound ghrelin O-acyltransferase MBOAT4 (Mus musculus); assay: Inhibition of His10-tagged mouse GOAT expressed in baculovirus infected Sf9 cells assessed as reduction in specific acyl transfer from tritiated-octanoyl CoA to recombinant His-tagged pro-ghrelin at 500 uM
[4] = molecular target: T1, Membrane-bound ghrelin O-acyltransferase MBOAT4 (Mus musculus); assay: Inhibition of His10-tagged mouse GOAT expressed in baculovirus infected Sf9 cells assessed as reduction in specific acyl transfer from tritiated-octanoyl CoA to recombinant His-tagged pro-ghrelin at <500 uM
[5] = molecular target: T2, Membrane-bound ghrelin O-acyltransferase MBOAT4 (Homo sapiens) (UniProt Q96T53); assay: Inhibition of GOAT (unknown origin) expressed in intact rat INS1 cells co-expressing pre-proghrelin incubated for 24 hrs; format: cell-based
T2 sequence (whole entry): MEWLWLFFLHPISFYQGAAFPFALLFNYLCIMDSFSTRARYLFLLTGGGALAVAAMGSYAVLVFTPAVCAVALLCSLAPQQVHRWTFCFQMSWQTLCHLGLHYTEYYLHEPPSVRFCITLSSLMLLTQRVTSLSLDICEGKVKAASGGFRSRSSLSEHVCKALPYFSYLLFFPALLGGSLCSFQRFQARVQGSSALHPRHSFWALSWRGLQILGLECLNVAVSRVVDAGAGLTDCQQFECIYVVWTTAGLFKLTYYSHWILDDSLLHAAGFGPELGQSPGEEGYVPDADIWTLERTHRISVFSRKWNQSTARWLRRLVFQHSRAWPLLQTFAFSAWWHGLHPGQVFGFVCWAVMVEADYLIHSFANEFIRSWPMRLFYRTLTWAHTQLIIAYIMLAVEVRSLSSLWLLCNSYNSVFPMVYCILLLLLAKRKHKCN

inhibition [1] | Compound | further results
Active | CCCCCCCC(C)(O)/C=C/CNC(=O)OCc1ccccc1 (configuration not stated) | –
inactive | CCCCCCCC(C)(O)/C=C/[C@H](NC(=O)C(C)(C)CO)C(=O)OC (some centres not stated) | –
inactive | CCCCCCCC(=O)NC[C@H](NC(=O)OCc1ccccc1)C(=O)OC | –
– | CCCCCCCC(=O)CC[C@H](NC(=O)OCc1ccccc1)C(=O)OC | inhibition [2]: Active
– | CCCCCCCC(O)CC[C@H](NC(=O)OCc1ccccc1)C(=O)N[C@H](COC)Cc1ccccc1 (some centres not stated) | inhibition [2]: Active
Active | CCCCCCCC(C)(O)/C=C/[C@H](NC(=O)C(C)(C)CO)C(=O)N[C@@H](Cc1ccccc1)C(=O)N[C@@H](CC(C)C)C(N)=O (some centres not stated) | –
Dose-dependent effect | CCCCCCC[S+]([O-])CC[C@H](NC(=O)OCc1ccccc1)C(=O)OC (some centres not stated) | –
Active | CCCCCCCC(C)(O)/C=C/[C@H](NC(=O)OCc1ccccc1)C(=O)NC(C)C (some centres not stated) | –
Active | CCCCCCCC(C)(O)C/C=C(/NC(=O)OCc1ccccc1)C(=O)NC(C)C (configuration not stated) | –
Active | CCCCCCCC(C)(O)/C=C/[C@@H](NC(=O)OCc1ccccc1)C(=O)OC (some centres not stated) | inhibition [3]: Active
– | CCCCCCCC(O)/C=C/[C@H](NC(=O)OCc1ccccc1)C(=O)OC (some centres not stated) | inhibition [3]: Active; inhibition [4]: Active; inhibition [2]: Active
Dose-dependent effect | CCCCCCCC(=O)NC[C@H](NC(=O)[C@H](CO)NC(=O)CN)C(=O)N[C@@H](Cc1ccccc1)C(=O)N[C@@H](CC(C)C)C(N)=O (H-GS[Dap](Octanoyl)FL-NH2) | –
– | CCCCCCCC(O)CC[C@H](NC(=O)C(C)(C)CO)C(=O)OC (some centres not stated) | inhibition [3]: Active
inactive | CCC(C)(O)/C=C/[C@H](NC(=O)OCc1ccccc1)C(=O)OC (some centres not stated) | –
Dose-dependent effect | CCCCCCCC(C)(O)/C=C/[C@H](NC(=O)OCc1ccccc1)C(=O)OC (some centres not stated) | inhibition [2]: Active; inhibition [5]: Active
– | CCCCCCCC(O)CC[C@H](NC(=O)C(C)(C)CO)C(=O)N[C@H](COC)Cc1ccccc1 (some centres not stated) | inhibition [3]: Active; inhibition [4]: Active

Source: ChEMBL document CHEMBL4482314, “Small molecule inhibitors of ghrelin O-acyltransferase” (2012)
